Measured values as given in patent US8530652B2, “Pyrrolopyrazoles, potent kinase inhibitors” (Agouron Pharmaceuticals, Inc., priority 2005, dated 2013).
Where two headings read alike, the source gives them in different places.

Tests used:
[1] = molecular target: PAK4 kinase activity in whole cells (TR-293-KDG, modified HEK 293 overexpressing GEF-H1b and PAK4 KD) (Homo sapiens (Human), UniProt O96013); assay: PAK4 cellular assay: sandwich ELISA of PAK4-dependent phosphorylation of GEF-H1b in TR-293-KDG cells; assay type: cell-based; settings: doxycycline-induced, 3-hour exposure, phospho-GEF-H1b ELISA
Sequence of PAK4 kinase activity in whole cells (TR-293-KDG, modified HEK 293 overexpressing GEF-H1b and PAK4 KD) (O96013 321-572): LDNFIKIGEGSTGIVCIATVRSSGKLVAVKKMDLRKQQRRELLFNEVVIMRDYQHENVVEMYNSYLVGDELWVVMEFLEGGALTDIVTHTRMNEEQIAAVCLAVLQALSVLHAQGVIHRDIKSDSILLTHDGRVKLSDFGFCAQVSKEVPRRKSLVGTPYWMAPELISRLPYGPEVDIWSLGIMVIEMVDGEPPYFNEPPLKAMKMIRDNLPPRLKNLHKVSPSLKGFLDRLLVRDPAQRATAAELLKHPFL
Source text: A sandwich ELISA method was used to measure the PAK4 kinase activity in whole cells. The level of PAK4-dependent phosphorylation of GEF-H1b can be determined by monitoring the binding of a phosphospecific antibody to GEF-H1b. A modified HEK 293 cell line is used in the bioassay and it has been engineered to overexpress both GEF-H1b and the kinase domain (KD) of PAK4. The KD of PAK4 is inducible in this cell line by tetracycline (Trex system, Invitrogen). The name of this cell line has been designated TR-293-KDG. To establish a phosphorylation event on GEF-H1, cells are induced with doxycycline to express the PAK4 KD. […] Candidate substance effect is measured as the ability to block this phosphorylation event.
ELISA plate was prepared by pre-coating the plates with a capture antibody (α-HA-tag mouse monoclonal antibody), blocked with BSA, and washed in 0.1% tween 20 in tris-buffered saline (TBST). Tissue culture plates (precoated with poly-D-lysine) were seeded with TR-293-KDG cells. The TR-293-KDG Cells were induced to express the PAK4 KD with doxycycline overnight and subsequently & concomitantly treated with candidate substances or diluent for an additional 3-hour, continuous exposure. Cells were then lysed with a modified RIPA buffer supplemented with protease inhibitors. The fresh whole cell lysates were then added to the ELISA plate for 2-hours. Between all subsequent steps plates were washed 4 times with TBST. Detection antibody (recognizing the phospho-specific eptitope on GEF-H1b) was added for 1 hour, followed by addition of an enzyme linked goat α-rabbit secondary antibody for 45 minutes. […] EC50 values were calculated by sigmoid curve fitting using a four-parameter analysis.

[2] = molecular target: PAK4 kinase domain (PAK4 KD) (Homo sapiens (Human), UniProt O96013); assay: PAK4 kinase domain enzymatic assay (coupled PK/LDH, NADH absorbance at 340 nm); assay type: biochemical
Sequence of PAK4 kinase domain (PAK4 KD) (O96013 321-572): as above
Source text: Cloning, expression, and purification of recombinant PAK4 Kinase domain (PAK4 KD): The cDNA coding for PAK4 was amplified from the EST clone (#12) (purchased from Research Genetics) by using PCR. […] The PCR amplified product was cloned into Topo vector (Invitrogen Inc.), and verified by DNA sequencing. PAK4 KD was then subcloned into expression plasmid pET28a(+), pET24a(+), or pGST4.5. The recombinant plasmids containing PAK4 KD was transformed into BL21(DE3) cells for recombinant protein expression. […] The cells were then harvested and lyzed for protein purification. Ni-NTA column (pET28a(+), pET24a(+)) and glutathione column (pGST4.5) were used for the purification.
PAK4 kinase domain enzymatic assay conditions: the enzymatic activity of PAK4 KD was measured by its ability to catalyze the transfer of a phosphate residue from a nucleoside triphosphate to an amino acid side chain of a commercially available peptide (amino acid sequence […]). The conversion of ATP to ADP accompanies the catalytic reaction. The PAK4 KD catalyzed production of ADP from ATP was coupled to the oxidation of NADH through the activities of pyruvate kinase (PK) and lactate dehydrogenase (LDH). The conversion of NADH to NAD^+ is monitored by the decrease in absorbance at 340 nm (e340=6.22 cm^−1mM^−1) using a Molecular Devices SPECTRAMAX 190 in conjunction with the Biomec FX. Typical reaction solutions contain 2 mM phosphoenolpyruvate, 0.35 mM NADH, 10 mM MgCl2, 1 mM DTT, 0.4 mM peptide ([…]) 0.04 mM ATP, 1 units/mL PK, 1 units/mL LDH, 0.01% Tween 20 in 50 mM HEPES, pH 7.5. […] The PAK KD Ki of each compound of the invention (the inhibitor) was calculated based on multiple of Percent Inhibition numbers of the inhibitor at different inhibitor concentrations. The peptide (amino sequence […]) was purchased from American Peptide Company. NADH, MgCl2, HEPES, DTT, ATP and PK/LDH were purchased from Sigma. Tween 20 was purchased from Calbiochem.

[3] = PAK4 kinase domain, 25 nM PAK4 KD, 0.04 mM ATP, pH 7.5

Compound	EC50 [1] [nM]	Ki [2, 3] [nM]	Ki [2] [nM]
CC1(C)c2[nH]nc(Nc3nc(Cl)nc4ccccc34)c2CN1C(=O)NC1CC1c1ccccc1 (stereo not drawn) [Example 12, 3-[(2-chloroquinazolin-4-yl)amino]-6,6-dimethyl-N-[(trans-2-phenylcyclopropyl]-4,6-dihydropyrrolo[3,4-c]pyrazole-5(1H)-carboxamide]	78	38	
COc1nc(Nc2n[nH]c3c2CN(C(=O)NC2C[C@@H]2c2ccccc2)C3(C)C)nc(N2CCC[C@H]2CO)n1 (stereo partly drawn) [Example 16, 3-({4-[(2S)-2-(hydroxymethyl)pyrrolidin-1-yl]-6-methoxy-1,3,5-triazin-2-yl}amino)-6,6-dimethyl-N-[trans-2-phenylcyclopropyl]-4,6-dihydropyrrolo[3,4-c]pyrazole-5(1H)-carboxamide]	1270	76	
CN(C)C[C@@H](NC(=O)N1Cc2c(Nc3ncncc3F)n[nH]c2C1(C)C)c1ccccc1 [Example 67, N-[(1S)-2-(dimethylamino)-1-phenylethyl]-3-[(5-fluoropyrimidin-4-yl)amino]-6,6-dimethyl-4,6-dihydropyrrolo[3,4-c]pyrazole-5(1H)-carboxamide]	20	280	
CN(C)C[C@@H](OC(=O)N1Cc2c(Nc3ncnc4ccsc34)n[nH]c2C1(C)C)c1ccccc1 [Example 68, (1S)-2-(dimethylamino)-1-phenylethyl 6,6-dimethyl-3-(thieno[3,2-d]pyrimidin-4-ylamino)-4,6-dihydropyrrolo[3,4-c]pyrazole-5(1H)-carboxylate]	20	6.7	
Cc1nc(Nc2n[nH]c3c2CN(C(=O)N[C@@H]2C[C@H]2c2ccccc2)C3(C)C)cc(N2CCOCC2)n1 (relative stereo) [Example 34, 6,6-dimethyl-3-[(2-methyl-6-morpholin-4-ylpyrimidin-4-yl)amino]-N-[trans-2-phenylcyclopropyl]-4,6-dihydropyrrolo[3,4-c]pyrazole-5(1H)-carboxamide]	778	21	
CN(C)C[C@@H](NC(=O)N1Cc2c(Nc3ncnc4ccoc34)n[nH]c2C1(C)C)c1ccccc1 [Example 83, N-[(1S)-2-(dimethylamino)-1-phenylethyl]-3-(furo[3,2-d]pyrimidin-4-ylamino)-6,6-dimethyl-4,6-dihydropyrrolo[3,4-c]pyrazole-5(1H)-carboxamide]	84	58	
COc1nc(Nc2n[nH]c3c2CN(C(=O)NC2CC2c2ccccc2)C3(C)C)nc(N2CCC[C@H]2C#N)n1 (stereo in doubt) [Example 20, 3-({4-[(2S)-2-cyanopyrrolidin-1-yl]-6-methoxy-1,3,5-triazin-2-yl}amino)-6,6-dimethyl-N-[trans-2-phenylcyclopropyl]-4,6-dihydropyrrolo[3,4-c]pyrazole-5(1H)-carboxamide]	1200		90
Cc1ncnc(Nc2n[nH]c3c2CN(C(=O)O[C@H](CN(C)C)c2ccccc2)C3(C)C)c1F [Example 77, (1S)-2-(dimethylamino)-1-phenylethyl 3-[(5-fluoro-6-methylpyrimidin-4-yl)amino]-6,6-dimethyl-4,6-dihydropyrrolo[3,4-c]pyrazole-5(1H)-carboxylate]	69	93	
CCCOc1nc(Cl)nc(Nc2n[nH]c3c2CN(C(=O)N[C@@H]2C[C@H]2c2ccccc2)C3(C)C)n1 (relative stereo) [Example 7, 3-[(4-chloro-6-propoxy-1,3,5-triazin-2-yl)amino]-6,6-dimethyl-N-[trans-2-phenylcyclopropyl]-4,6-dihydropyrrolo[3,4-c]pyrazole-5(1H)-carboxamide]	> 4000	87	
Cc1nc(Nc2n[nH]c3c2CN(C(=O)O[C@H](CN(C)C)c2ccccc2)C3(C)C)c2sccc2n1 [Example 73, (1S)-2-(dimethylamino)-1-phenylethyl 6,6-dimethyl-3-[(2-methylthieno[3,2-d]pyrimidin-4-yl)amino]-4,6-dihydropyrrolo[3,4-c]pyrazole-5(1H)-carboxylate]	< 3.9	1.6	
CN(C)C[C@@H](NC(=O)N1Cc2c(Nc3ccnc(C#N)n3)n[nH]c2C1(C)C)c1ccccc1 [Example 60, 3-[(2-cyanopyrimidin-4-yl)amino]-N-[(1S)-2-(dimethylamino)-1-phenylethyl]-6,6-dimethyl-4,6-dihydropyrrolo[3,4-c]pyrazole-5(1H)-carboxamide]	< 3.9	40	
CC1(C)c2[nH]nc(Nc3ncnc4ccsc34)c2CN1C(=O)N[C@@H]1C[C@H]1c1ccccc1 [Example 51, 6,6-dimethyl-N-[(1R,2S)-2-phenylcyclopropyl]-3-(thieno[3,2-d]pyrimidin-4-ylamino)-4,6-dihydropyrrolo[3,4-c]pyrazole-5(1H)-carboxamide]	31	18	
CC1(C)c2[nH]nc(Nc3nc(Cl)nc4ccsc34)c2CN1C(=O)N[C@@H]1C[C@H]1c1ccccc1 (relative stereo) [Example 2, 3-[(2-chlorothieno[3,2-d]pyrimidin-4-yl)amino]-6,6-dimethyl-N-[trans-2-phenylcyclopropyl]-4,6-dihydropyrrolo[3,4-c]pyrazole-5(1H)-carboxamide]	36	14	
COc1ncc(F)c(Nc2n[nH]c3c2CN(C(=O)O[C@H](CN(C)C)c2ccccc2)C3(C)C)n1 [Example 79, (1S)-2-(dimethylamino)-1-phenylethyl 3-[(5-fluoro-2-methoxypyrimidin-4-yl)amino]-6,6-dimethyl-4,6-dihydropyrrolo[3,4-c]pyrazole-5(1H)-carboxylate]	< 3.9	39	
CC1(C)c2[nH]nc(Nc3nc(C#N)nc4ccccc34)c2CN1C(=O)N[C@@H]1C[C@H]1c1ccccc1 (relative stereo) [Example 40, 3-[(2-cyanoquinazolin-4-yl)amino]-6,6-dimethyl-N-[trans-2-phenylcyclopropyl]-4,6-dihydropyrrolo[3,4-c]pyrazole-5(1H)-carboxamide]	98	18	
Cc1nc(Nc2n[nH]c3c2CN(C(=O)N[C@H](CN(C)C)c2ccccc2)C3(C)C)c2ccsc2n1 [Example 58, N-[(1S)-2-(dimethylamino)-1-phenylethyl]-6,6-dimethyl-3-[(2-methylthieno[2,3-d]pyrimidin-4-yl)amino]-4,6-dihydropyrrolo[3,4-c]pyrazole-5(1H)-carboxamide]	2.5		14
Cc1nccc(Nc2n[nH]c3c2CN(C(=O)N[C@H](CN(C)C)c2ccccc2)C3(C)C)n1 [Example 65, N-[(1S)-2-(dimethylamino)-1-phenylethyl]-6,6-dimethyl-3-[(2-methylpyrimidin-4-yl)amino]-4,6-dihydropyrrolo[3,4-c]pyrazole-5(1H)-carboxamide]	67.1	680	
CN(C)c1nc(Nc2n[nH]c3c2CN(C(=O)NC2C[C@@H]2c2ccccc2)C3(C)C)nc(N2CCC[C@H]2CO)n1 (stereo partly drawn) [Example 23, 3-({4-(dimethylamino)-6-[(2S)-2-(hydroxymethyl)pyrrolidin-1-yl]-1,3,5-triazin-2-yl}amino)-6,6-dimethyl-N-[trans-2-phenylcyclopropyl]-4,6-dihydropyrrolo[3,4-c]pyrazole-5(1H)-carboxamide]	> 4000	140	
